Patent publication US4666934A, “Prostaglandin analogs” (The Upjohn Company, priority 1985, dated 1987)
Converted amounts (≈) assume the structure as drawn. Structures can show the parent of a compound that is named as a salt. One block for each molecule: values may come before it.

How the values were obtained:
Format in all cases: physicochemical
[1] = Trichlorotrifluoroethane solubility
Experimental: The solubility of the compounds in trichlorotrifluoroethane, a high molecular weight fluorochlorinated alkane liquid propellant, was determined as follows. Suspensions of each compound were prepared at concentrations of ~1 mg/ml in trichlorotrifluoroethane in 30 ml glass vials sealed using polytetrafluoroethylene lined caps. These vials were wrapped with aluminum foil and shaken at ~25° C. After 26 days shaking the samples were filtered. Three successive 5 ml fractions were collected from the filter and analyzed to test for adsorption. (No adsorption was observed.)
The 5 ml samples were transferred to 5 ml volumetric flasks and solvent was evaporated under nitrogen. The residue was redissolved in 1 ml methanol and diluted to 5 ml with 30% CH3 CN. Samples were assayed by high pressure liquid chromatography.

Water solubility = conditions: for Water solubility: in words
[2] = Characterizability (passes profile; moisture content after air equilibration); conditions: for Characterizability (passes profile): Table I
[3] = Stability suspended in trichlorotrifluoroethane; conditions: dark, 30°
Experimental: (§1) The solid-state stability studies were performed as follows. Approximately 10-15 mg of the free acid or a salt was placed in either clear glass vials or amber vials wrapped in aluminum foil and stored under various conditions as listed below:
(d) Suspended in […] and shaken continuously for 26 days.
(§2) At various times, 1-1.5 mg samples were dissolved in methanol, diluted to a prescribed volume with water, and analyzed by high pressure liquid chromatography versus reference standard of the free acid stored at -20° C. Chromatographic conditions were similar to those described previously.

Solid-state stability = conditions: for Solid state stability (degradation): 2 months at 33° C., 87600 min; for Solid-state stability (visual observation): 75% R.H., 30°, same = as at day 0
Experimental: as §1
(a) Refrigerated at about 4° C. (dark).
(b) High Intensity Light Box at about 33° C. and relative humidity <15%. (Light Box contained 6-15 watt fluorescent bulbs 41/2 inches above the powder surface.) Sample vials were placed on their sides with powder spread evenly on the vial wall.
(c) 30° C./75% relative humidity/dark-vials were capped loosely.
as §2

[4] = Specific gravity (volume displacement, pycnometer); conditions: 20° C., acetonitrile
Experimental: To obtain specific gravity data approximate densities were obtained using a volume displacement procedure. To a 5 ml weighed pycnometer was added 200-300 mg of salt and acetonitrile added to fill. The salt suspensions were sonicated to remove entrapped air and equilibrated to 20° C. in a water bath. The salt densities were estimated by standard methods of calculation.

solubility at 624 h ([1]; trichlorotrifluoroethane, organic solvent or mixture, ~25° C., 26 days shaking): 0.38 µg/mL (≈ 0.893 µM)
solubility (Water solubility; water, Table I, numeric): 1 µg/mL (≈ 2.35 µM)
Characterizability (passes profile) [2]: Pass
Stability in trichlorotrifluoroethane suspension ([3]; 0 days): 100% of Theory
remaining at 624 h ([3]; trichlorotrifluoroethane, 26 days, read-out: Stability in trichlorotrifluoroethane suspension): 94%
Solid state stability (degradation) (Solid-state stability): > 10%
Solid-state stability (Solid-state stability; Dark, 33°, 0 days): 100% of Theory
Solid-state stability (Solid-state stability; Dark, 33°, 19 days, 27360 min): 98% of Theory
Solid-state stability (Solid-state stability; Dark, 33°, 189 days, 272160 min): 65% of Theory
Solid-state stability (Solid-state stability; Dark, 33°, 289 days, 416160 min): 46% of Theory
Solid-state stability (Solid-state stability; Dark, 33°, 405 days, 583200 min): 19% of Theory
Solid-state stability (visual observation) (Solid-state stability; Dark, 19 days): same
Solid-state stability (Solid-state stability; High intensity light, 33°, relative humidity <15%, 0 days): 100% of Theory
Solid-state stability (Solid-state stability; High intensity light, 33°, relative humidity <15%, 19 days, 27360 min): 55% of Theory
remaining at 960 h (Solid-state stability; solid state, Dark, 33°, 40 days): 94%
remaining at 1584 h (Solid-state stability; solid state, Dark, 33°, 66 days): 89%
SMILES: CCCCC[C@H](O)/C=C/[C@@H]1c2cc(CCCCC(=O)O)n(-c3ccccc3)c2C[C@H]1O [Free Acid, 6,9-deepoxy-6,9-(phenylimino)-Δ6,8-prostaglandin I1, reference compound]

Trichlorotrifluoroethane solubility ([1]; ~25° C., 26 days shaking, potassium salt, 37440 min): 0.43 µg/mL
Water solubility (Water solubility; listed as potassium salt, potassium salt): high water solubility
Water solubility (Water solubility; potassium salt): Soluble
Specific gravity ([4]; potassium salt): 1.20
Characterizability (passes profile) ([2]; potassium salt): Pass
moisture content after air equilibration ([2]; potassium salt): .42 % H2O
Stability in trichlorotrifluoroethane suspension ([3]; 26 days, potassium salt, 37440 min): 100% of Theory
Solid state stability (degradation) (Solid-state stability; potassium salt): < 2%
Solid-state stability (Solid-state stability; Dark, 4°, 0 days, potassium salt): 100% of Theory
Solid-state stability (Solid-state stability; Dark, 33°, 0 days, potassium salt): 100% of Theory
Solid-state stability (Solid-state stability; Dark, 33°, 19 days, potassium salt, 27360 min): 100% of Theory
Solid-state stability (Solid-state stability; Dark, 33°, 40 days, potassium salt, 57600 min): 100% of Theory
Solid-state stability (Solid-state stability; Dark, 33°, 66 days, potassium salt, 95040 min): 100% of Theory
Solid-state stability (Solid-state stability; Dark, 33°, 289 days, potassium salt, 416160 min): 96% of Theory
Solid-state stability (Solid-state stability; Dark, 33°, 405 days, potassium salt, 583200 min): 96% of Theory
Solid-state stability (visual observation) (Solid-state stability; Dark, 19 days, potassium salt): glass
Solid-state stability (Solid-state stability; High intensity light, 33°, relative humidity <15%, 0 days, potassium salt): 100% of Theory
Solid-state stability (Solid-state stability; High intensity light, 33°, relative humidity <15%, 19 days, potassium salt, 27360 min): 48% of Theory
Rank order of stability (Solid-state stability; protected from light, 33°): potassium salt>free acid>sodium salt
remaining at 1584 h (Solid-state stability; solid state, Dark, 4°, 66 days): 102%
remaining at 4536 h (Solid-state stability; solid state, Dark, 4°, 189 days): 101%
remaining at 2400 h (Solid-state stability; solid state, Dark, 33°, 100 days): 97%
remaining at 5184 h (Solid-state stability; solid state, Dark, 33°, 216 days): 98%
SMILES: CCCCC[C@H](O)/C=C/[C@@H]1c2cc(CCCCC(=O)O)n(-c3ccccc3)c2C[C@H]1O [Potassium Salt, 6,9-Deepoxy-6,9-(phenylimino)-Δ6,8-prostaglandin I1, potassium salt]
Solubility in fluorinated and fluorochlorinated liquified propellants ([1]; as compared to the free acid, in words): low solubility in fluorinated and fluorochlorinated liquified propellants
Solid-state stability (Solid-state stability; in words, over the free acid or the sodium salt): improved solid-state stability over the free acid or the sodium salt

Water solubility (Water solubility; sodium salt): Soluble
Specific gravity ([4]; sodium salt): 1.18
moisture content after air equilibration ([2]; sodium salt): .82 % H2O
Solid state stability (degradation) (Solid-state stability; sodium salt): > 50%
Solid-state stability (Solid-state stability; Dark, 4°, 0 days, sodium salt): 101% of Theory
Solid-state stability (Solid-state stability; Dark, 33°, 0 days, sodium salt): 101% of Theory
Solid-state stability (Solid-state stability; Dark, 33°, 19 days, sodium salt, 27360 min): 61% of Theory
Solid-state stability (visual observation) (Solid-state stability; Dark, 19 days, sodium salt): same
Solid-state stability (Solid-state stability; High intensity light, 33°, relative humidity <15%, 0 days, sodium salt): 101% of Theory
Solid-state stability (Solid-state stability; High intensity light, 33°, relative humidity <15%, 19 days, sodium salt, 27360 min): 3% of Theory
remaining at 456 h (Solid-state stability; solid state, Dark, 4°, 19 days): 87%
remaining at 1104 h (Solid-state stability; solid state, Dark, 4°, 46 days): 77%
SMILES: CCCCC[C@H](O)/C=C/[C@@H]1c2cc(CCCCC(=O)O)n(-c3ccccc3)c2C[C@H]1O [Sodium Salt, 6,9-Deepoxy-6,9-(phenylimino)-Δ6,8-prostaglandin I1, sodium salt]
Characterizability (passes profile) ([2]; sodium salt): Initial analysis acceptable but later assays (HPLC) unacceptable
